The values that follow come from US10829438B2, “Neprilysin inhibitors” (THERAVANCE BIOPHARMA R&D IP, LLC, priority 2012, dated 2020).

The structures appear in SMILES notation.

For the first assay, the target named is human NEP (Homo sapiens (Human), UniProt P08473). The assay can be described thus: In vitro enzyme inhibition assay at human NEP (fluorogenic peptide substrate). Type of assay: biochemical.
Sequence of human NEP (P08473 52-750): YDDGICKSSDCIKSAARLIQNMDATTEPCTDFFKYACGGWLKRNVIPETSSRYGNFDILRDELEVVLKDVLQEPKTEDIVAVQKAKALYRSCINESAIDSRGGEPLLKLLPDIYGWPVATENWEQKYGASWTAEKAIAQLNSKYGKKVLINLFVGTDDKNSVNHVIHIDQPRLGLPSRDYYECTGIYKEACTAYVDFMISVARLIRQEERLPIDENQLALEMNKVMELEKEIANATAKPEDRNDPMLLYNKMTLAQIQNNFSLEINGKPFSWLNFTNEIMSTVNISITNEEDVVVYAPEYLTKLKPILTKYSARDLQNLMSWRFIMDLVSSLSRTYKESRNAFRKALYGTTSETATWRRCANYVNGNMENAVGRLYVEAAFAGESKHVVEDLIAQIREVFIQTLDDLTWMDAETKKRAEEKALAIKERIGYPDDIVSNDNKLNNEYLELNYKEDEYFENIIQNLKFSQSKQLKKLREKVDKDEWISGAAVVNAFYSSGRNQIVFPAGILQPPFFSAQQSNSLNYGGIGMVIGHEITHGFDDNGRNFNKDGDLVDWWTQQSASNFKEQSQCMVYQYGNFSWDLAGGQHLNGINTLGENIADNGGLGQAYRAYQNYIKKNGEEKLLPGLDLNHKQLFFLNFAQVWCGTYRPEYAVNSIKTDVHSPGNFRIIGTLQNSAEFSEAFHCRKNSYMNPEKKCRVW
Conditions: not given
How it is done: In Vitro Assays for the Quantitation of Inhibitor Potencies (IC50) at Human and Rat NEP, and Human ACE
The inhibitory activities of compounds at human and rat neprilysin (EC 3.4.24.11; NEP) and human angiotensin converting enzyme (ACE) were determined using in vitro assays as described below.
Recombinant human NEP and recombinant human ACE were obtained commercially (R&D Systems, Minneapolis, Minn., catalog numbers 1182-ZN and 929-ZN, respectively). The fluorogenic peptide substrate Mca-D-Arg-Arg-Leu-Dap-(Dnp)-OH (Medeiros et al. (1997) Braz. J. Med. Biol. Res. 30:1157-62; Anaspec, San Jose, Calif.) and Abz-Phe-Arg-Lys(Dnp)-Pro-OH (Araujo et al. (2000) Biochemistry 39:8519-8525; Bachem, Torrance, Calif.) were used in the NEP and ACE assays respectively.
The assays were performed in 384-well white opaque plates at 37° C. using the fluorogenic peptide substrates at a concentration of 10 μM in Assay Buffer (NEP: 50 mM HEPES, pH 7.5, 100 mM NaCl, 0.01% polyethylene glycol sorbitan monolaurate (Tween-20), 10 μM ZnSO4; ACE: 50 mM HEPES, pH 7.5, 100 mM NaCl, 0.01% Tween-20, 1 μM ZnSO4).
Test compounds were assayed over the range of concentrations from […] to 20 μM. Test compounds were added to the enzymes and incubated for 30 minute at 37° C. prior to initiating the reaction by the addition of substrate. Reactions were terminated after 20 minutes of incubation at 37° C. by the addition of glacial acetic acid to a final concentration of 3.6% (v/v).
Plates were read on a fluorometer with excitation and emission wavelengths set to 320 nm and 405 nm, respectively. Inhibition constants were obtained by nonlinear regression of the data using the equation (GraphPad Software, Inc., San Diego, Calif.): v=v0/[1+(I/K′)] where v is the reaction rate, v0 is the uninhibited reaction rate, I is the inhibitor concentration and K′ is the apparent inhibition constant.
Consider `O=C(N[C@H](Cc1ccc(-c2cccc(Cl)c2)cc1)C[C@@H](O)C(=O)O)c1ccc2nnn(OCc3ccccc3)c2c1` [Example 1I, (2R,4R)-4-[(3-Benzyloxy-3H-benzotriazole-5-carbonyl)amino]-5-(3′-chlorobiphenyl-4-yl)-2-hydroxypentanoic Acid], for which the Ki fell in the range of 12.6 to 100 nM.

Still in this assay, the particulars now being: recombinant human NEP; 30 minute pre-incubation at 37° C.; fluorogenic substrate 10 μM.
As to `CC(=O)OCOn1nnc2ccc(C(=O)N[C@H](Cc3ccc(-c4cccc(Cl)c4)cc3)C[C@@H](O)C(=O)O)cc21` [Example 1G, (2R,4R)-4-[(3-Acetoxymethoxy-3H-benzotriazole-5-carbonyl)amino]-5-(3′-chlorobiphenyl-4-yl)-2-hydroxypentanoic Acid], the “pKi value at human NEP” value is listed as at least 9.0. As to `CC(C)[C@@H](N)C(=O)OCOn1nnc2ccc(C(=O)N[C@H](Cc3ccc(-c4cccc(Cl)c4)cc3)C[C@@H](O)C(=O)O)cc21` [Example 1L, (2R,4R)-4-{[3-((R)-2-Amino-3-methylbutyryloxymethoxy)-3H-benzotriazole-5-carbonyl]amino}-5-(3′-chlorobiphenyl-4-yl)-2-hydroxy-pentanoic Acid], the “pKi value at human NEP” value is at least 9.0. In the case of `O=C(N[C@H](Cc1ccc(-c2cccc(Cl)c2)cc1)C[C@@H](O)C(=O)O)c1cc(-c2ccccc2F)no1` [Example 6A, (2R,4R)-5-(3′-Chlorobiphenyl-4-yl)-4-{[3-(2-fluorophenyl)isoxazole-5-carbonyl]amino}-2-hydroxypentanoic Acid], the “pKi value at human NEP” value was at least 9.0.

Staying with this assay, now noted: recombinant human NEP; 30 minute pre-incubation at 37° C.; fluorogenic substrate 10 μM; read-out: pKi value at human NEP (converted).
As to `O=C(N[C@H](Cc1ccc(-c2cccc(Cl)c2)cc1)C[C@@H](O)C(=O)O)c1ccc2nnn(O)c2c1` [Example 1A, (2R,4R)-5-(3′-Chlorobiphenyl-4-yl)-2-hydroxy-4-[(3-hydroxy-3H-benzotriazole-5-carbonyl)amino]pentanoic Acid], the Ki is at most 1 nM. On the same count and under the same terms, with `CCCC(=O)OCOn1nnc2ccc(C(=O)N[C@H](Cc3ccc(-c4cccc(Cl)c4)cc3)C[C@@H](O)C(=O)O)cc21` [Example 1M, (2R,4R)-4-[(3-Butyryloxymethoxy-3H-benzotriazole-5-carbonyl)amino]-5-(3′-chlorobiphenyl-4-yl)-2-hydroxypentanoic Acid] the figure was 1.26 to 10 nM; with `Cn1nc(C(=O)N[C@H](Cc2ccc(-c3cccc(Cl)c3)cc2)C[C@@H](O)C(=O)O)cc1O` [Example 2A, (2R,4R)-5-(3′-Chlorobiphenyl-4-yl)-2-hydroxy-4-[(5-hydroxy-1-methyl-1H-pyrazole-3-carbonyl)amino]pentanoic Acid], at most 1 nM. Same read-out and setting: with `O=C(N[C@H](Cc1ccc(-c2cccc(Cl)c2)cc1)C[C@@H](O)C(=O)O)c1cc(O)n(-c2ccccn2)n1` [Example 3A, (2R,4R)-5-(3′-Chlorobiphenyl-4-yl)-2-hydroxy-4-[(5-hydroxy-1-pyridin-2-yl-1H-pyrazole-3-carbonyl)amino]pentanoic Acid] the figure was at most 1 nM. For the compound `CC(=O)c1cc(C(=O)N[C@H](Cc2ccc(-c3cc(Cl)ccc3F)cc2)C[C@@H](O)C(=O)O)n[nH]1` [Example 4B, (2R,4R)-4-[(5-Acetyl-1H-pyrazole-3-carbonyl)amino]-5-(5′-chloro-2′-fluorobiphenyl-4-yl)-2-hydroxypentanoic Acid], the Ki is at most 1 nM.

Consider `CC(=O)c1cc(C(=O)N[C@H](Cc2ccc(-c3cccc(Cl)c3)cc2)C[C@@H](O)C(=O)O)n[nH]1` [Example 5B, (2R,4R)-4-[(5-Acetyl-1H-pyrazole-3-carbonyl)amino]-5-(3′-chlorobiphenyl-4-l)-2-hydroxypentanoic Acid], for which the Ki is at most 1 nM. Turning to `COc1cc(C(=O)N[C@H](Cc2ccc(-c3cccc(Cl)c3)cc2)C[C@@H](O)C(=O)O)on1` [Example 7A, (2R,4R)-5-(3′-Chlorobiphenyl-4-yl)-2-hydroxy-4-[(3-methoxyisoxazole-5-carbonyl)amino]pentanoic Acid], the Ki is at most 1 nM. Turning to `O=C(N[C@H](Cc1ccc(-c2cc(Cl)ccc2F)cc1)C[C@@H](O)C(=O)O)c1cn(O)nn1` [Example 8A, (2R,4R)-5-(5′-Chloro-2′-fluorobiphenyl-4-yl)-2-hydroxy-4-[(1-hydroxy-1H-[1,2,3]triazole-4-carbonyl)amino]pentanoic Acid], the Ki was at most 1 nM. `O=C(N[C@H](Cc1ccc(-c2cccc(Cl)c2)cc1)C[C@@H](O)C(=O)O)c1nn(-c2ccccc2)c(=O)[nH]1` [Example 9A, (2R,4R)-5-(3′-Chlorobiphenyl-4-yl)-2-hydroxy-4-[(5-oxo-1-phenyl-4,5-dihydro-1H-[1,2,4]triazole-3-carbonyl)amino]pentanoic Acid]: the Ki was at most 1 nM.

In the case of `CC(=O)c1cc(C(=O)N[C@H](Cc2ccc(-c3ccccc3)cc2)C[C@@H](O)C(=O)O)[nH]n1` [formula X′, (2R,4R)-4-[(5-acetyl-2H-pyrazole-3-carbonyl)amino]-5-biphenyl-4-yl-2-hydroxypentanoic acid], the Ki was at most 1 nM.
